“And” between values parts separate entries of the source, which are not always exact repeats. Equal values may be shown once. Read-outs that look alike come from different tables or passages of the source. Each block holds one molecule with its values, some of them ahead of it.
Tests used:
P. falciparum (D6 Clone) = type: cell-based, Plasmodium falciparum; conditions: read-out: P. falciparum (D6 Clone) IC50; chloroquine-sensitive D6 clone
P. falciparum (W2 Clone) = type: cell-based, Plasmodium falciparum; conditions: read-out: P. falciparum (W2 Clone) IC50; chloroquine-resistant W2 clone
[1] = system: Leishmania donovani promastigotes; experiment: In vitro antileishmanial activity, Alamar Blue assay; type: cell-based; conditions: for IC50: read-out: L. donovani IC50; for IC90: read-out: L. donovani IC90
[2] = system: Staphylococcus aureus ATCC 29213; experiment: Antibacterial susceptibility testing; type: cell-based
[3] = system: Methicillin-resistant S. aureus ATCC 33591 (MRSA); experiment: Antibacterial susceptibility testing; type: cell-based, Staphylococcus aureus
[4] = system: Escherichia coli ATCC 35218; experiment: Antibacterial susceptibility testing; type: cell-based
[5] = system: Pseudomonas aeruginosa ATCC 27853; experiment: Antibacterial susceptibility testing; type: cell-based
[6] = system: Mycobacterium intracellulare ATCC 23068; experiment: Antibacterial susceptibility testing; type: cell-based
[7] = system: Candida albicans ATCC 90028; experiment: In vitro antifungal activity; type: cell-based
[8] = system: Candida glabrata ATCC 90030; experiment: In vitro antifungal activity; type: cell-based
Candida krusei ATCC 6258 = experiment: In vitro antifungal activity; type: cell-based
[9] = system: Cryptococcus neoformans ATCC 90113; experiment: In vitro antifungal activity; type: cell-based
[10] = system: Aspergillus fumigatus ATCC 204305; experiment: In vitro antifungal activity; type: cell-based
HIV-1NL4.3 virus = experiment: Anti-HIV activity, p24 antigen capture ELISA in CEM-GFP cells; type: cell-based; conditions: CEM-GFP cells infected with HIV-1NL4.3, non-cytotoxic concentration

IC50 (P. falciparum (D6 Clone)): 14.8 µM | IC50 (P. falciparum (W2 Clone)): 13.7 µM | IC50 ([1]; promastigotes): 48200 nM | IC90 ([1]; promastigotes): 124 µM | S. aureus MIC [2]: 80.32 µM | IC50 ([2]; read-out: S. aureus IC50): 64.1 µM | MRSA MIC [3]: 80.3 µM | IC50 ([3]; read-out: MRSA IC50): 56 µM and 56.1 µM | IC50 ([6]; read-out: M. intracellulare IC50): 79.5 µM | IC50 ([9]; read-out: Cryptococcus neoformans IC50): 76.2 µM
Structure (SMILES): CCCCC[C@@H]1C[C@@H]2CC[C@@H]3C[C@H](C)NC(=N1)N32 (racemic) [17l, batzelladine K]
S. aureus MBC [2]: - (“-” = Not active at the highest test concentration of 20 μg/mL) | MRSA MBC [3]: - (“-” = Not active at the highest test concentration of 20 μg/mL) | E.coli IC50 [4]: - (“-” = Not active at the highest test concentration of 20 μg/mL) | E.coli MBC [4]: - (“-” = Not active at the highest test concentration of 20 μg/mL) | E.coli MIC [4]: - (“-” = Not active at the highest test concentration of 20 μg/mL) | P. aeruginosa IC50 [5]: - (“-” = Not active at the highest test concentration of 20 μg/mL) | P. aeruginosa MBC [5]: - (“-” = Not active at the highest test concentration of 20 μg/mL) | P. aeruginosa MIC [5]: - (“-” = Not active at the highest test concentration of 20 μg/mL) | M. intracellulare MBC [6]: - (“-” = Not active at the highest test concentration of 20 μg/mL) | M. intracellulare MIC [6]: - (“-” = Not active at the highest test concentration of 20 μg/mL) | Candida albicans MFC [7]: - (“-” = No activity at the highest test concentration of 20 μg/mL) | Candida albicans MIC [7]: - (“-” = No activity at the highest test concentration of 20 μg/mL) | Candida glabrata MFC [8]: - (“-” = No activity at the highest test concentration of 20 μg/mL) | Candida glabrata MIC [8]: - (“-” = No activity at the highest test concentration of 20 μg/mL) | Candida krusei MFC (Candida krusei ATCC 6258): - (“-” = No activity at the highest test concentration of 20 μg/mL) | Candida krusei MIC (Candida krusei ATCC 6258): - (“-” = No activity at the highest test concentration of 20 μg/mL) | Cryptococcus neoformans MFC [9]: - (“-” = No activity at the highest test concentration of 20 μg/mL) | Cryptococcus neoformans MIC [9]: - (“-” = No activity at the highest test concentration of 20 μg/mL) | Aspergillus fumigatus MFC [10]: - (“-” = No activity at the highest test concentration of 20 μg/mL) | Aspergillus fumigatus MIC [10]: - (“-” = No activity at the highest test concentration of 20 μg/mL) | anti-HIV activity (inhibition of HIV-1) (HIV-1NL4.3 virus): no anti-HIV activity

IC50 ([1]; Leishmania donovani): 173 nM | IC90 ([1]; Leishmania donovani): 0.358 µM
Structure (SMILES): C[C@@H]1[C@H](O)[C@@H](C)/C=C/C=C/C=C/C=C/C=C/C=C/C=C/[C@H](O[C@@H]2O[C@H](C)[C@@H](O)[C@H](N)[C@@H]2O)C[C@@H]2O[C@](O)(C[C@@H](O)C[C@@H](O)[C@H](O)CC[C@@H](O)C[C@@H](O)CC(=O)O[C@H]1C)C[C@H](O)[C@H]2C(=O)O [Amphotericin B]

IC50 ([1]; Leishmania donovani): 2940 nM | IC90 ([1]; Leishmania donovani): 5.88 µM
Structure (SMILES): N=C(N)c1ccc(OCCCCCOc2ccc(C(=N)N)cc2)cc1 [Pentamidine]

Reference: paper PMC3488358 (Chemical biology & drug design, 2013)
